Experimental data: patent US7351737B2, “4-[(8-substituted)-6-chromanoyl]-and 4-[8-substituted)-chroman-6-YL-ethynyl]-benzoic and phenylacetic acids, their esters and salts having cytochrome P450RAI inhibitory activity” (Allergan, Inc., priority 2002, dated 2008)

Test system: skin of fuzzy rats
Assay: Topical skin irritation test
Assay type: in vivo, female fuzzy rats (Hsd:FUZZY-fz)
Settings: 0.1% retinol alone, topical in acetone, daily Day 1-14; group average of erythema/eschar grade 0-4 (Table 2)
From the text: The topical retinoid all-trans-retinoic acid (ATRA) and oral retinoids such as 13-cis RA and etretinate are known to induce substantial skin irritation in humans. This irritation is a direct result of activation of the RAR nuclear receptors. Analysis of retinoid topical irritation is also a highly reproducable method of determining in vivo retinoid potency. The female fuzzy rats provide a convenient animal model of topical irritation, since retinoid-induced skin flaking and abrasion can be readily scored by eye, while their larger size than those of mice also allows multiple sampling of serum for clinical analyses. Topical application of P450RAI inhibitors should cause an increase in the endogenous levels of ATRA that would result in ATRA-induced irritation in skin of hairless mice. In these tests female fuzzy rats ((Hsd:FUZZY-fz), 6-7 weeks old, were obtained from Harlan Sprague-Dawley (Indianapolis, Ind.). The animals were about 8-9 weeks old at the start of the experiments. Food (Purina Rodent Chow 5001) and water purified by reverse osmosis were provided ad libitum. The rats were housed individually throughout the dosing period. Test chemicals were dissolved in acetone (vehicle) for application to the backs of the rats. Two days prior to actual administration of the test compounds, rats were handled daily and dosed with vehicle at a volume of 0.5 ml/kg. Starting on Day 1 thought Day 14 (dosing period), animals were dosed with the vehicle or compound(s) according to their group assignment. The rats in the tests were observed daily and the dorsal skin was graded for the degree of erythema/eschar and overall appearance. The scoring was in accordance with Table 2, below. [table] Daily group average was calculated by dividing the sum of the individual grade by the number of animals in each treatment group. The attached data in Table 3 indicates the retinoid-mimetic effects of some P450RAI inhibitors on the skin of fuzzy rats in the above described tests and in accordance with the above-indicated scoring.

Compound: CC1=C(/C=C/C(C)=C/C=C/C(C)=C/CO)C(C)(C)CCC1 [retinol, reference compound]
- Irritation Score on day 14: 1
